Literature values as cited in patent US8603529B2, “Polynucleotide aptamer-based cross-linked materials and uses thereof” (Smartcells, Inc., priority 2009, dated 2013).

Biological target: avidin (Gallus gallus, UniProt P02701)
Sequence (P02701 25-152, species assumed): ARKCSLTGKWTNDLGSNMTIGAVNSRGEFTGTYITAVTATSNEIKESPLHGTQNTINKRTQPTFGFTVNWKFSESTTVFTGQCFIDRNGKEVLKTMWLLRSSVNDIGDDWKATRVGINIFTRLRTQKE

O=C(O)CCCC[C@@H]1SC[C@@H]2NC(=O)N[C@@H]21 [biotin]
binding constant between biotin and avidin: 10^15 M^−1
